Data as given in ChEMBL document CHEMBL4613264, “Design, Synthesis, and Biological Evaluation of New Peripheral 5HT2A Antagonists for Nonalcoholic Fatty Liver Disease” (J Med Chem, 2020).
pIC50: −log10 of the molar value. Blank lines part the entries; values can stand above or below the molecule they belong to. Active and inactive are the calls of the source. The calls are words filed in the database; no cut-off is given here.

Columns and labels:
[1] = molecular target: T1, 5-hydroxytryptamine receptor 2A (Homo sapiens, UniProt P28223); assay: Antagonist activity at 5HT2A receptor (unknown origin) expressed in HEK293 cells assessed as inhibition of serotonin hydrochloride-induced calcium flux preincubated for 1 hr followed by serotonin hydrochloride addition by calcium 6 dye based FLIPR assay; format: functional, cell-based
[2] = system: Mus musculus; assay: Protection against 10 week HFD-induced liver disease in C57BL/6J mouse assessed as reduction in inguinal white adipose tissue fat mass at 50 to 100 mg/kg, ip administered daily for 10 weeks and measured post last dose by H and E staining based histological analysis; format: functional, organism-based
[3] = molecular target: 5-hydroxytryptamine receptor 1B (Homo sapiens) (UniProt P28222); assay: Antagonist activity at recombinant human 5HT1B expressed in human HeLa cells assessed as inhibition of serotonin-induced cAMP accumulation at 1 uM measured after 5 mins by TR-FRET assay relative to control; format: functional, cell-based
[4] = AUC (infinity) in Sprague-Dawley rat at 5 mg/kg, iv by LC-MS/MS analysis; format: ADME, organism-based; parameters: dose 5 mg/kg, time infinity, route intravenous; settings: in vivo
[5] = system: Mus musculus; assay: Protection against 10 week HFD-induced liver disease in C57BL/6J mouse assessed as reduction in liver weight at 50 to 100 mg/kg, ip administered daily for 10 weeks and measured post last dose; format: functional, organism-based
[6] = system: CHO-K1; assay: Cytotoxicity against CHOK1 cells; format: cell-based; settings: Cricetulus griseus
[7] = molecular target: T2, 5-hydroxytryptamine receptor 2C (Homo sapiens) (UniProt P28335); assay: Antagonist activity at recombinant human 5HT2C receptor expressed in HEK293 cells assessed as inhibition of serotonin-induced inositol phosphate accumulation at 1 uM measured after 30 mins by HTRF assay relative to control; format: functional, cell-based
T2 sequence (whole entry): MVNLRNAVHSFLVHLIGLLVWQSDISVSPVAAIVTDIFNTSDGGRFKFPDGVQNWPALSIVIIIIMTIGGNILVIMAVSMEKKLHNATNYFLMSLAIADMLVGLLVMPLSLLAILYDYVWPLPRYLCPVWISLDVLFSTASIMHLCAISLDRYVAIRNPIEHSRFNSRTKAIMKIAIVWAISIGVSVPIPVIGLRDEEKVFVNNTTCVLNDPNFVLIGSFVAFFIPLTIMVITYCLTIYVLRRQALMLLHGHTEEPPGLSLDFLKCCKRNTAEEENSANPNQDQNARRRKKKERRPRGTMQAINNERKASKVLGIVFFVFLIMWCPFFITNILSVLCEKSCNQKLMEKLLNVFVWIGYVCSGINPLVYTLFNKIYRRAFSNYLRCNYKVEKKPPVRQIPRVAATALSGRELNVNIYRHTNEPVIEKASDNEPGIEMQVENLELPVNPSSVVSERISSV

[8] = system: NIH3T3; assay: Cytotoxicity against mouse NIH/3T3 cells; format: cell-based
[9] = system: Mus musculus; assay: Protection against 10 week HFD-induced liver disease in C57BL/6J mouse assessed as reduction in crownlike structure appearance in epididymal white adipose tissue at 50 to 100 mg/kg, ip administered daily for 10 weeks and measured post last dose by H and E staining based histological analysis; format: functional, organism-based
[10] = molecular target: 5-hydroxytryptamine receptor 2B (Homo sapiens) (UniProt P41595); assay: Antagonist activity at recombinant human full-length 5HT2B receptor expressed in CHOK1 cells assessed as inhibition of serotonin-induced inositol phosphate accumulation at 1 uM measured after 30 mins by TR-FRET assay relative to control; format: functional, cell-based; settings: CHO-K1
[11] = in vitro; settings: rat, liver microsomes
Description: Stability in rat liver microsomes assessed as parent compound remaining measured after 30 mins

[12] = system: L929; assay: Cytotoxicity against mouse L929 cells; format: cell-based
[13] = system: Mus musculus; assay: Protection against 10 week HFD-induced liver disease in C57BL/6J mouse assessed as increase in lead body mass at 100 mg/kg, ip administered daily for 10 weeks and measured post last dose by NMR analysis; format: functional, organism-based
[14] = system: Mus musculus; assay: Protection against 10 week HFD-induced liver disease in C57BL/6J mouse assessed as reduction in epididymal white adipose tissue fat mass at 50 to 100 mg/kg, ip administered daily for 10 weeks and measured post last dose by H and E staining based histological analysis; format: functional, organism-based
[15] = system: Mus musculus; assay: Protection against 10 week HFD-induced liver disease in C57BL/6J mouse assessed as reduction in blood glucose level at 100 mg/kg, ip administered daily for 10 weeks and measured 9 weeks post HFD stimulation by IPGTT; format: functional, organism-based
[16] = Stability in human liver microsomes assessed as parent compound remaining measured after 30 mins; format: ADME, Microsome; settings: read-out: Stability
[17] = molecular target: T3, 5-hydroxytryptamine receptor 1A (Homo sapiens) (UniProt P08908); assay: Antagonist activity at human 5HT1A expressed in mouse BA/F3 cells assessed as inhibition of serotonin-induced cAMP accumulation at 1 uM by fluorescence assay relative to control; format: functional, cell-based; settings: BaF3
T3 sequence (whole entry): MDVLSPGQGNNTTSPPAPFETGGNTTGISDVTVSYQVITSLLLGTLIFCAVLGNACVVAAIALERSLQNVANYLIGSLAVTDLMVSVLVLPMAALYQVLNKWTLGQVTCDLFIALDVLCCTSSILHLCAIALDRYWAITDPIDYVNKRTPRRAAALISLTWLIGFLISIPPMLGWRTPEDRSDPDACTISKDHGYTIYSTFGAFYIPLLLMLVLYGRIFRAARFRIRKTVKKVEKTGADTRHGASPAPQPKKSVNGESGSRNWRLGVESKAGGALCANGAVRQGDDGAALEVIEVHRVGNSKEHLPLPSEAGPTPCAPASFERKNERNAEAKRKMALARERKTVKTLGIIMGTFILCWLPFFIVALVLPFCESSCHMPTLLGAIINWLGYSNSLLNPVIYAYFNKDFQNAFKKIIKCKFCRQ

[18] = molecular target: T1, 5-hydroxytryptamine receptor 2A; assay: Antagonist activity at recombinant human full-length 5HT2A receptor expressed in CHOK1 cells assessed as inhibition of serotonin-induced inositol phosphate accumulation at 1 uM measured after 30 mins by TR-FRET assay relative to control; format: functional, cell-based; settings: CHO-K1
[19] = system: Vero; assay: Cytotoxicity against African green monkey Vero cells; format: cell-based; settings: Chlorocebus sabaeus
[20] = Drug level in ICR mouse brain at 5 mg/kg, iv measured after 0.5 hrs by LC-MS/MS analysis; format: ADME, organism-based; settings: read-out: Drug uptake
[21] = molecular target: T4, 5-hydroxytryptamine receptor 3A (Homo sapiens) (UniProt P46098); assay: Antagonist activity at 5HT3 (unknown origin) at 1 uM relative to control
T4 sequence (whole entry): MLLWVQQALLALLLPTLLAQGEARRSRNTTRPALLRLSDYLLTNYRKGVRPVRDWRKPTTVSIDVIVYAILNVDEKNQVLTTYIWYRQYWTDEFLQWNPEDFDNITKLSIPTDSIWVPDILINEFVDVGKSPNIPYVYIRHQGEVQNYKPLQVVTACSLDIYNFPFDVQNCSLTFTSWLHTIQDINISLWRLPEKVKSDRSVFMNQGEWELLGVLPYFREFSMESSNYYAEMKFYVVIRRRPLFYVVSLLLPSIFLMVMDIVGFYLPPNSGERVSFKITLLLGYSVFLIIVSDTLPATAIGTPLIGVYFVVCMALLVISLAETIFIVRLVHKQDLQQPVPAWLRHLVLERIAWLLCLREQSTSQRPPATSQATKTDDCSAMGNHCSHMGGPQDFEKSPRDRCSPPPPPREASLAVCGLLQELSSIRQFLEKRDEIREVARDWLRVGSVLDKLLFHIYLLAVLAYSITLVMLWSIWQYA

[22] = Half life in Sprague-Dawley rat at 5 mg/kg, iv by LC-MS/MS analysis; format: ADME, organism-based; settings: in vivo
[23] = molecular target: 5-hydroxytryptamine receptor 7 (Homo sapiens) (UniProt P34969); assay: Antagonist activity at recombinant human 5HT7 receptor expressed in CHOK1 cells assessed as inhibition of serotonin-induced cAMP accumulation at 1 uM measured after 30 mins by HTRF assay relative to control; format: functional, cell-based; settings: CHO-K1
[24] = system: Mus musculus; assay: Protection against 10 week HFD-induced liver disease in C57BL/6J mouse assessed as reduction in adipocyte size of inguinal white adipose tissue at 50 to 100 mg/kg, ip administered daily for 10 weeks and measured post last dose by H and E staining based histological analysis; format: functional, organism-based
[25] = Plasma concentration in ICR mouse at 5 mg/kg, iv measured after 0.5 hrs by LC-MS/MS analysis; format: ADME, organism-based
[26] = system: Mus musculus; assay: Protection against 10 week HFD-induced liver disease in C57BL/6J mouse assessed as reduction in hepatic triglyceride accumulation at 50 to 100 mg/kg, ip administered daily for 10 weeks and measured post last dose by H and E staining based histological analysis; format: functional, organism-based
[27] = molecular target: hERG (KCNH2) (Homo sapiens, UniProt Q12809); assay: Inhibition of human ERG at 10 uM relative to control
[28] = system: Mus musculus; assay: Protection against 10 week HFD-induced liver disease in C57BL/6J mouse assessed as reduction in hepatic triglyceride accumulation at 50 to 100 mg/kg, ip administered daily for 10 weeks and measured post last dose by triglyceride reagent based colorimetric analysis; format: functional, organism-based
[29] = AUCt in Sprague-Dawley rat at 5 mg/kg, iv by LC-MS/MS analysis; format: ADME, organism-based; settings: in vivo
[30] = Ratio of drug level in brain to plasma of ICR mouse at 5 mg/kg, iv measured after 0.5 hrs by LC-MS/MS analysis; format: ADME, organism-based; settings: read-out: BPR
[31] = system: Mus musculus; assay: Protection against 10 week HFD-induced liver disease in C57BL/6J mouse assessed as reduction in brown adipose tissue fat mass at 50 to 100 mg/kg, ip administered daily for 10 weeks and measured post last dose by H and E staining based histological analysis; format: functional, organism-based
[32] = system: HFL1; assay: Cytotoxicity against human HFL1 cells; format: cell-based
[33] = system: Mus musculus; assay: Protection against 10 week HFD-induced liver disease in C57BL/6J mouse assessed as reduction in body fat accumulation at 100 mg/kg, ip administered daily for 10 weeks and measured post last dose by NMR analysis; format: functional, organism-based
[34] = system: Mus musculus; assay: Protection against 10 week HFD-induced liver disease in C57BL/6J mouse assessed as reduction in body weight gain at 100 mg/kg, ip administered daily for 10 weeks and measured post HFD stimulation; format: functional, organism-based
[35] = Clearance in Sprague-Dawley rat at 5 mg/kg, iv by LC-MS/MS analysis; format: ADME, organism-based; settings: in vivo
[36] = Volume of distribution at steady state in Sprague-Dawley rat at 5 mg/kg, iv by LC-MS/MS analysis; format: ADME, organism-based; settings: in vivo, read-out: Vdss
[37] = Permeability of the compound by PAMPA; format: ADME; settings: read-out: permeability
[38] = Ratio of drug level in brain to plasma of ICR mouse at 10 mg/kg, ip measured after 0.5 hrs by LC-MS/MS analysis; settings: read-out: BPR
[39] = Plasma concentration in ICR mouse at 10 mg/kg, ip measured after 0.5 hrs by LC-MS/MS analysis
[40] = Drug level in ICR mouse brain at 10 mg/kg, ip measured after 0.5 hrs by LC-MS/MS analysis; settings: read-out: Drug uptake

T1 sequence (P28223 whole entry): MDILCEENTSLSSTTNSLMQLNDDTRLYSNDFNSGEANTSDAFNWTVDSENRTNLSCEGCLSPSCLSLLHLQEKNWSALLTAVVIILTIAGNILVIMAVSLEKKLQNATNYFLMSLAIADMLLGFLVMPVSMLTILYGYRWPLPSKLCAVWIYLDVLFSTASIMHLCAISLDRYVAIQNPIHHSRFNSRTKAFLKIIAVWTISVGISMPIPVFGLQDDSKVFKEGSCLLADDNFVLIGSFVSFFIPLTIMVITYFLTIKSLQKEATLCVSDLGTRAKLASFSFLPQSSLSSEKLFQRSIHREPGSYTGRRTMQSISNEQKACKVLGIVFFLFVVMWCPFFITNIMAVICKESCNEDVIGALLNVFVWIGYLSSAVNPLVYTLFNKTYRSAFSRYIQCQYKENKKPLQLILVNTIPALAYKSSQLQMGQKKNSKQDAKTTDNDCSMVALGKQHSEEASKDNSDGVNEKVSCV
Chain of hERG (KCNH2) (Q12809 whole entry): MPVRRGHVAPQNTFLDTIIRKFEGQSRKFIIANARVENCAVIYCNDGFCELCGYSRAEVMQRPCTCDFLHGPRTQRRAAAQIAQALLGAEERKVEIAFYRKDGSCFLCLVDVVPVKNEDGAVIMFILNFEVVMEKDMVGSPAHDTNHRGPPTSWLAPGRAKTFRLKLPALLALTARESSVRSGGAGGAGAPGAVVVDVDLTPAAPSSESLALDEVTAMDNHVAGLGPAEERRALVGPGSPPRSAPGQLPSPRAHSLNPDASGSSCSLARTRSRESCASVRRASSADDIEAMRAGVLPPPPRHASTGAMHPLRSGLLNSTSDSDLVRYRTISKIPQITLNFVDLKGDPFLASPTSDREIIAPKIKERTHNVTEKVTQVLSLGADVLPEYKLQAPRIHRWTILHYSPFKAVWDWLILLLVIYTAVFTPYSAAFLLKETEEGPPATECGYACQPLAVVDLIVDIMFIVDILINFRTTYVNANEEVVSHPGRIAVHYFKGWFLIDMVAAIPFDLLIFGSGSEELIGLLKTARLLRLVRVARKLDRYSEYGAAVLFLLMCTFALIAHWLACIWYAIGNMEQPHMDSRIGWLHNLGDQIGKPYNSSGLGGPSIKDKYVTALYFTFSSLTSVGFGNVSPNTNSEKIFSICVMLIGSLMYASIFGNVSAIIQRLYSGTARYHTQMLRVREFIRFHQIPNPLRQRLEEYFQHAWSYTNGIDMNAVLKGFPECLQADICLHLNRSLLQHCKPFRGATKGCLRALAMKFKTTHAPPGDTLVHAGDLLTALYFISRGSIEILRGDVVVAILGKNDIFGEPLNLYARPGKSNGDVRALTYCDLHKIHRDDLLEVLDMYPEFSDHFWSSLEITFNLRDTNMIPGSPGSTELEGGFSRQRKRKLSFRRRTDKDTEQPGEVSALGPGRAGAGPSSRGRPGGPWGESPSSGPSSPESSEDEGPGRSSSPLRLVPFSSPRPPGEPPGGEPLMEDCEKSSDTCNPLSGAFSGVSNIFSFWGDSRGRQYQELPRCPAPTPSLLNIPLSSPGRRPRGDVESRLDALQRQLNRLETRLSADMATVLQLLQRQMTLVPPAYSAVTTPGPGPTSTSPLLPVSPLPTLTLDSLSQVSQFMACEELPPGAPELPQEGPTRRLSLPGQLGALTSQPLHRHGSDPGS
Chain of 5-hydroxytryptamine receptor 2B (Homo sapiens) (P41595 whole entry): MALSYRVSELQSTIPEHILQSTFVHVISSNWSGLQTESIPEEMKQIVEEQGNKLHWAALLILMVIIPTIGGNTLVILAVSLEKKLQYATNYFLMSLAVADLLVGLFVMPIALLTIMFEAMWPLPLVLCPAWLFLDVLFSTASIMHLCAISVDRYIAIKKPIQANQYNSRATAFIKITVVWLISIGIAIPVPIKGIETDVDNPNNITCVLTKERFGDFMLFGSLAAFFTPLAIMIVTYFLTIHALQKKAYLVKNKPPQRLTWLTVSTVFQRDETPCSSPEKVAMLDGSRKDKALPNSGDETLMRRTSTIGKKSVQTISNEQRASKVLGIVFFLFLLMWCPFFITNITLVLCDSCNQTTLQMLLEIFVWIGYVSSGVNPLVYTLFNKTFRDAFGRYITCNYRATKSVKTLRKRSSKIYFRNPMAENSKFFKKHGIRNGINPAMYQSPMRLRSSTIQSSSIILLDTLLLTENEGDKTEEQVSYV
Chain of 5-hydroxytryptamine receptor 1B (Homo sapiens) (P28222 whole entry): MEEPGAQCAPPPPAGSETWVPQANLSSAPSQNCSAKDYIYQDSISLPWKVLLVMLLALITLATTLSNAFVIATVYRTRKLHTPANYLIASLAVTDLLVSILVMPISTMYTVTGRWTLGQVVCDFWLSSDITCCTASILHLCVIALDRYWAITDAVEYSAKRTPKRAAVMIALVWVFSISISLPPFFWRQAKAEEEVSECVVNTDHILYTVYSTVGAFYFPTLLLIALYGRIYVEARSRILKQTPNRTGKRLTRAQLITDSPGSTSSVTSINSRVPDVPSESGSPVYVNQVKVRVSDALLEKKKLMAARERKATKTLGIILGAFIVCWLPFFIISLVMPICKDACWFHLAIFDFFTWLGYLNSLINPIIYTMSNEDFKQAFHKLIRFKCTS
Chain of 5-hydroxytryptamine receptor 7 (Homo sapiens) (P34969 whole entry): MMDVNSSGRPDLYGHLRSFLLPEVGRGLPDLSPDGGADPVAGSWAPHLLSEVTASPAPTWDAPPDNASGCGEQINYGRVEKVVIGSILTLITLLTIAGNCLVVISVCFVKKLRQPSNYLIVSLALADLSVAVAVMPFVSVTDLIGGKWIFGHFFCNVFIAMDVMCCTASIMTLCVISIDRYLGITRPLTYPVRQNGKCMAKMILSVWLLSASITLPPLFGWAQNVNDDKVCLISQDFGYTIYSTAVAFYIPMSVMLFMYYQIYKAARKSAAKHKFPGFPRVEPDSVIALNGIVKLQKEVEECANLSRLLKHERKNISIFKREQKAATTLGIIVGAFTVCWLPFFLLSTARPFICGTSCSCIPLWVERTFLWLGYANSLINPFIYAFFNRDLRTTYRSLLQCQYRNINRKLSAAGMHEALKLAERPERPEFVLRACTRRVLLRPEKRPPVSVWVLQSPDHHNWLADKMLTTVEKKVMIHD

Compound: CC(C)COc1ccc(CNC(=O)N(Cc2ccc(F)cc2)C2CCN(C(=S)NC(C)C)CC2)cc1
pIC50 [1]: 5.95

Compound: CC(C)COc1ccc(CNC(=O)N(Cc2ccc(F)cc2)C2CCN(C(=O)CCC(=O)O)CC2)cc1
pIC50 [1]: 6.50

Compound: CC(C)COc1ccc(CNC(=O)N(Cc2ccc(F)cc2)C2CCN(C(=O)C[C@H](N)C(=O)O)CC2)cc1
pIC50 [1]: 7.46

Compound: CC(C)COc1ccc(CNC(=O)N(Cc2ccc(F)cc2)C2CCN(C)CC2)cc1 [PIMAVANSERIN]
Kp at 0.5 h [38]: 4.98 | concentration at 0.5 h [39]: 612 ng/mL | concentration at 0.5 h [40]: 3010 ng/g

Second part, led by results:

inhibition [3]: 6% | AUC(0-inf) [4]: 2030 ng·h/mL | pIC50 [1]: 8.08 | inhibition [7]: 63.8% | inhibition [10]: 7% | remaining at 0.5 h [11]: 84% | remaining at 0.5 h [16]: 89% | inhibition [17]: -2.8% | inhibition [18]: 93% | concentration at 0.5 h [20]: 15.1 ng/g | inhibition [21]: -5% | half-life [22]: 16.9 h | inhibition [23]: 6.3% | concentration at 0.5 h [25]: 416 ng/mL | AUC(0-t) [29]: 1910 ng·h/mL | Kp at 0.5 h [30]: 0.038 | clearance [35]: 41 mL/min/kg | Vd [36]: 11 L/kg
Compound: CC(C)COc1ccc(CNC(=O)N(Cc2ccc(F)cc2)C2CCN(C(=O)CC[C@H](N)C(=O)O)CC2)cc1
Activity [2]: Active | Activity [5]: Active | pIC50 [6]: 4.29 | pIC50 [8]: 4.74 | Activity [9]: Active | pIC50 [12]: 4.19 | Activity [13]: Active | Activity [14]: Active | Activity [15]: Active | pIC50 [19]: 4.26 | Activity [24]: Active | Activity [26]: Active | inhibition at 10 µM [27]: 18.7% | Activity [28]: Active | Activity [31]: Active | pIC50 [32]: 4.26 | Activity [33]: Active | Activity [34]: Active

pIC50 [1]: 9.41 | concentration at 0.5 h [20]: 741 ng/g | concentration at 0.5 h [25]: 455 ng/mL | Papp [37]: 4.79 ×10⁻⁶ cm/s | Kp at 0.5 h [30]: 1.63
Compound: CN1CCC(N(Cc2ccc(F)cc2)C(=O)NCc2ccc(OCC(O)CN3CCC(c4noc5cc(F)ccc45)CC3)cc2)CC1 (configuration not stated)
